# In US7365080B2, “Pharmaceutical compositions comprising thieno[2,3-c]pyridine derivatives and use thereof” (Rimonyx Pharmaceuticals Ltd., priority 2003, dated 2008):
# Legend:
# [1] = test system: Human T-lymphocytes on human endothelial cells; assay: T-lymphocyte rolling on endothelial cells under shear flow; type: cell-based; conditions: for inhibition at 25 µM: Homo sapiens, high shear flow, read-out: inhibition of cell rolling; for % rolling: test compound (25 μM), shear flow
# Protocol: Human T-lymphocytes were passed over a layer of human endothelial cells according to the method of Lawrence and Springer (Cell 65: 859-873, 1991). At high shear flow, migrating T-lymphocytes adhered transiently and intermittently to the endothelial cells as a consequence of HS-GAG-ECAM interaction. The resulting T-cell rolling was recorded by video camera and the number of rolling cells per defined area during a constant period of time was determined. Soluble heparin (competitor of cell surface GAGs) abolished T-cell rolling under high shear flow conditions. Compounds no. 1, 11 and 25, each at 25 μM, inhibited cell rolling by 90, 90 and 70%, respectively.
# [2] = test system: K562 (Chronic myeloid leukemia); assay: Inhibition of leukemia cell growth (SRB); type: cell-based; conditions: 10^−8-10^−4 Molar, 48 hours
# Protocol: (§1) Each cell line (RPMI-8226 (Multiple Myeloma), MOLT-4 (Acute lymphoblastic leukemia), CCR-CEM (Human T Cell leukemia), K562 (Chronic myeloid leukemia), SR (Chronic myeloid leukemia) was pre-incubated on a microtiter plate (Monks A et al, J. Natl. Cancer Inst., 83:757-766, 1991). Inhibitor compounds were then added at different concentrations (10^−8-10^−4 Molar) and the culture incubated for 48 hours. A sulforhodamine B (SRB) protein assay was used to estimate cell viability or growth (Skehan P et al, J. Natl. Cancer Inst., 82:1107-1112, 1990). Compound no. 1 inhibited the growth of the cell lines RPMI-8226, MOLT4, CCR-CEM, K562 and SR to 100%, 100%, 100%, 100% and 93%, respectively. There was negligible cell death (less than 15%).
# [3] = test system: MOLT-4 (Acute lymphoblastic leukemia); assay: Inhibition of leukemia cell growth (SRB); type: cell-based; conditions: MOLT4; 10^−8-10^−4 Molar, 48 hours
# Protocol: as §1
# [4] = test system: CCR-CEM (Human T Cell leukemia); assay: Inhibition of leukemia cell growth (SRB); type: cell-based; conditions: 10^−8-10^−4 Molar, 48 hours
# Protocol: as §1
# [5] = test system: SR (Chronic myeloid leukemia); assay: Inhibition of leukemia cell growth (SRB); type: cell-based; conditions: 10^−8-10^−4 Molar, 48 hours
# Protocol: as §1
# [6] = test system: RPMI-8226 (Multiple Myeloma); assay: Inhibition of leukemia cell growth (SRB); type: cell-based; conditions: 10^−8-10^−4 Molar, 48 hours
# Protocol: as §1
# [7] = test system: RPMI-8226, MOLT-4, CCR-CEM, K562, SR; assay: Leukemia cell lines (SRB): cell death; type: cell-based; conditions: 48 hours
# Protocol: as §1
# L-Selectin = biological target: T1, L-Selectin (Homo sapiens, UniProt P14151); assay: ELISA: inhibition of L-selectin/IgG binding to immobilized heparin (Heparin-BSA); conditions: L-Selectin binding to heparin
# T1 construct: purchased Research and Development Systems 728-LS
# T1 sequence (P14151 39-332 limits assumed): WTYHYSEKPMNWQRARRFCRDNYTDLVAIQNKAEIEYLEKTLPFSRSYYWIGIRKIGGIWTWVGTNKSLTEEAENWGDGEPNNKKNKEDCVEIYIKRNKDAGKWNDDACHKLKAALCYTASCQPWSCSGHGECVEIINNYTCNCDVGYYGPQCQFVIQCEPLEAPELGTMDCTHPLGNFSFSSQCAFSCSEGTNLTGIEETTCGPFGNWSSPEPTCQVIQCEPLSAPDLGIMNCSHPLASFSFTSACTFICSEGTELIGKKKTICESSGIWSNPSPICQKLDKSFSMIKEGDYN
# Protocol: The inhibitory effect of the compounds of the present invention can be evaluated by several methods in vitro. One assay for measuring GAG-ECAM binding, exemplified herein below, detects the binding of L selectin/IgG to immobilized heparin. Another assay utilizes immobilized L-selectin, or L-selectin fused to protein domains other than IgG. The amount of bound L-selectin is determined by an ELISA assay using, for example, a monoclonal antibody raised against L-selectin, which is conjugated to horseradish peroxidase. […] The Dregg-55 antibody was also shown to inhibit L-selectin-dependent adhesion in vitro, neutrophil accumulation in vitro and inflammation in vivo (Co M. S. et al, Immunotechnology 493: 253-266, 1999).
# An in vitro assay was used to assess the ability of test compounds according to formula I to inhibit the interactions of L-selectin with HS-GAGs. The assay was suitable for determining the concentration required for 50% inhibition (IC-50) for each specific compound. In the assay, the GAG used was heparin. Thus, porcine intestinal mucosa heparin conjugated to Bovine Serum Albumin (Heparin-BSA; Sigma Cat. No. H0403) at […] in Phosphate Buffered Saline (PBS; pH 6.5) was added to a 96 well polystyrene ELISA plate (NUNC Cat. No. 442404; 0.1 ml per well) and incubated Over Night (ON) at 4° C. Following the incubation, the plate was washed thoroughly, by immersion, with de-ionized water and PBS (pH 6.5). The ELISA plate was then blocked with BSA (ICN Cat. No.160069, 3%, 200 μl per well) for 1 hour at Room Temperature (RT). Following blocking, the plate was washed with de-ionized water, and then with PBS (pH 6.5) containing Tween 20 (Sigma Cat. No. P-1379, 0.05%). Compounds were synthesized or purchased from ChemDiv Labs (San Diego, Calif.), dissolved in DMSO, diluted in PBS and added to the wells at various concentrations in the range of 0.01 to 300 μM. Recombinant Human L-Selectin/IgG (Research and Development Systems Cat. No.728-LS) dissolved in PBS supplemented with BSA (0.1%) and calcium chloride (1 mM) was added to the ELISA plate (100 μl per well) and incubated for 60 minutes at RT with shaking. Following incubation, the plate was washed with de-ionized water and three times with PBS (pH 6.5) containing Tween 20. Anti-Human IgG Peroxidase Conjugate (1:5000; Sigma Product No. A8667) diluted in PBS supplemented with BSA (0.1%) and calcium chloride (1 mM) was added to the ELISA plate (100 μl per well) and incubated for 30 minutes at RT with shaking. The plate was then washed with de-ionized water and three times with PBS (pH 6.5) containing Tween 20. The peroxidase substrate cromogen, TMB (Dako Cat. No. S1599) was added (100 μl per well) to the ELISA plate and incubated at room temperature. After 15 minutes ELISA Stop Solution (hydrochloric acid 1N, sulfuric acid 3N) was added (200 μl per well) to stop the peroxidase catalyzed colorimetric reaction. The Optical Density (OD) of the samples was measured at 450 nm using an ELISA plate reader (Dynatech MR5000). Data were analyzed with Graphpad Prism software and IC-50 values were established. The P-selectin assay was carried out in a similar fashion, except that Recombinant Human P-Selectin/IgG (Research and Development Systems Cat.No.137-PS) was used.
# [8] = test system: NCI-H460 (Non-small cell lung carcinoma); assay: Inhibition of growth of cancer cell lines (alamar blue); type: cell-based; conditions: Homo sapiens, 48 hours
# Protocol: (§2) Each cell line (MCF7 (Breast carcinoma), NCI-H460 (Non-small cell lung carcinoma), and SF-268 (glioma) was pre-incubated on a microtiter plate. Inhibitor compounds were then added at a concentration of 0.1 μM and the culture incubated for 48 hours. End-point determinations were made with alamar blue (Gray G D, Wickstrom E, Biotechniques 21(5) 780-782, 1996). Results for each compound are presented as the percent of growth of the treated cells as compared to the untreated cells. Compounds, which reduce the growth of any one of the cell lines to approximately 32% or less were considered suitable for further and more extensive study (Monks A et al, J. Natl. Cancer Inst., 83:757-766, 1991. Compound no. 1 inhibited the growth of the cell lines MCF7, NCI-H460, and SF-268 by 99%, 100% and 99%, respectively.
# SF-268 (glioma) = assay: as above; type: cell-based; conditions: Homo sapiens, 48 hours
# Protocol: as §2
# MCF7 (Breast carcinoma) = assay: as above; type: cell-based; conditions: Homo sapiens, 48 hours
# Protocol: as §2
# Lewis rats = assay: Experimental Autoimmune Encephalomyelitis (MBP p87-99); type: in vivo, rat; conditions: intra-peritoneal once daily for 3 days, 10 and 35 mg/kg
# Source text: In autoimmune conditions, T cells reactive to self-antigens escape elimination in the thymus and are activated in the periphery, where they can provoke damage in specific organs. EAE, a model of autoimmune disease that is induced in Lewis rats, bears many similarities to the human disease Multiple Sclerosis (MS). T cells found in brain lesions of MS patients have TCR junctional rearrangements that are identical to T cells found in the spinal cords of Lewis rats immunized with a peptide of myelin basic protein MBP p87-99. In addition, a major T and B cell response in MS patients is directed to MBP p87-99.
# EAE is induced in rats by immunization with MBP p87-99. The inhibitor Compounds are administered once daily by intra-peritoneal injection for 3 consecutive days starting 1 day before the appearance of EAE symptoms (day 12 after EAE induction). The degree of clinical disease is scored as follows: 0=no signs; 1=loss of tail tonicity; 2=paralysis of hind limbs; 3=paralysis of all four limbs 4=quadriplegic animal in a moribund state.
# Mice = assay: TNBS induced colitis (Inflammatory Bowel Disease model); type: in vivo, mouse
# Protocol: Control mice (12 per group) were injected intraperitoneally (IP) with Test Compound (TC) Vehicle (Tween 80, 5%, 200 μl). […] The control and experimental mice were injected once per day for 7 successive days. […] 11 in the same experimental model. The compound was administered once a day for 7 days in a suspension with 0.5% methylcellulose per os. There were 12 mice per group and the control mice received 0.5% methylcellulose only. Compound no.
# [9] = test system: immobilized heparin / L-selectin/IgG; assay: Assay 1: direct interaction with heparin, pre-incubation versus co-incubation with L-selectin; type: binding; conditions: compound 0.1-200 μM, 90 min, washed before L-selectin/IgG
# Protocol: Inhibitor Compounds at final concentration 0.1-200 μM were incubated in the ELISA plate for 90 min, and then washed with incubation buffer. After washing, L-selectin/IgG was added to the wells pre-incubated with compounds. At the same time, in separate control wells, L-selectin was co-incubated with inhibitor Compounds for 90 min. Following the incubation, L-selectin bound to the plate was quantified by antibody conjugated to Horse Radish Peroxidase and OD measurement as performed as described in Example 5.
# BALB/c mice = assay: Thioglycollate-induced leukocyte and neutrophil infiltration into mouse peritoneum; type: in vivo; conditions: intraperitoneal, 1 hour before thioglycollate; 3 hours
# Protocol: The ability of compounds of the present invention to reduce leukocyte migration to sites of acute inflammation was evaluated in BALB/c mice using a thioglycolate-induced model of peritonitis. In this animal model, interactions of L- and P-selectin with HS-GAGs have been implicated in neutrophil infiltration (Nelson, R. M., 82:3253-3258, 1993; Xie, X. et al., J. Biol. Chem., 275:34818-34825, 2000).
# BALB/c mice (6 weeks old, ˜20 g in weight, 15 mice/group) received intraperitoneal injection of an inhibitor compound in 0.2 ml DMSO/Tween/sterile saline 1 hour before administration of thioglycollate (Sigma). Control groups received vehicle and sham controls received no thioglycollate. Mice were injected intraperitoneally with 1 ml of 3% thioglycollate broth (Xie, X. et al., J. Biol. Chem., 275, 34818-34825, 2000). Mice were sacrificed after 3 hours, and the peritoneal cavities were ravaged with […] of ice-cold saline containing 2 mM EDTA to prevent clotting. After red blood cell lysis, leukocytes were counted in a hemocytometer. Neutrophils were counted after staining with Türck. Data was expressed as mean±SEM, and statistical analysis was performed by Student t test. A value of P<0.05 was taken to denote statistical significance.
SMILES,inhibition at 25 µM [1] [%],% rolling [1] [%],growth inhibited to [2] [%],growth inhibited to [3] [%],growth inhibited to [4] [%],growth inhibited to [5] [%],growth inhibited to [6] [%],cell death [7],IC50 (L-Selectin) [µM],inhibition at 0.1 µM [8] [%],inhibition at 0.1 µM (SF-268 (glioma)) [%],inhibition at 0.1 µM (MCF7 (Breast carcinoma)) [%],clinical signs of EAE (in words) (Lewis rats),"colonic damage (score 0 to 10), in words (Mice; IP once per day for 7 days, 10 and 35 mg/kg)","colonic damage (score 0 to 10), in words (Mice; per os once a day for 7 days, 3, 50 and 100 mg/kg)","level of inhibition of L-selectin binding to heparin, pre-incubation versus co-incubation [9]",leukocyte migration into the peritoneal cavity (in words) (BALB/c mice)
"CC(C)N1CCc2c(sc(NC(=O)c3ccc(S(=O)(=O)N4CCc5ccccc5C4)cc3)c2C(N)=O)C1 [Compound 1, 2-[[(4-(3,4-dihydro-2(1H)-isoquinolinyl)sulfonyl]benzoyl]amino]-6-(1-methylethyl)-4,5,6,7-tetrahydrothieno[2,3-c]pyridine-3-carboxamide]",90,30,100,100,100,93,100,less than 15%,13,100,99,99,,,,,
"CCN1CCc2c(sc(NC(=O)c3ccc(S(=O)(=O)N(CC)CC)cc3)c2-c2nc3ccccc3s2)C1 [Compound 11, 2-[[4-[(diethylamino)sulfonyl]benzoyl]amino]-3-(benzothiazol-2-yl)-6-ethyl-4,5,6,7-tetrahydrothieno[2,3-c]pyridine]",90,<10,,,,,,,0.35,,,,significantly inhibited,significantly inhibited,significantly inhibited,same level of inhibition,inhibited efficiently
